The inhibition is the relative decrease from the control value, in per cent. In general, pIC50 refers to the negative decadic logarithm of the IC50, by convention in mol/L.

pIC50: −log10 of the molar value.

Sodium-dependent dopamine transporter (Homo sapiens), sequence (Q01959 whole entry): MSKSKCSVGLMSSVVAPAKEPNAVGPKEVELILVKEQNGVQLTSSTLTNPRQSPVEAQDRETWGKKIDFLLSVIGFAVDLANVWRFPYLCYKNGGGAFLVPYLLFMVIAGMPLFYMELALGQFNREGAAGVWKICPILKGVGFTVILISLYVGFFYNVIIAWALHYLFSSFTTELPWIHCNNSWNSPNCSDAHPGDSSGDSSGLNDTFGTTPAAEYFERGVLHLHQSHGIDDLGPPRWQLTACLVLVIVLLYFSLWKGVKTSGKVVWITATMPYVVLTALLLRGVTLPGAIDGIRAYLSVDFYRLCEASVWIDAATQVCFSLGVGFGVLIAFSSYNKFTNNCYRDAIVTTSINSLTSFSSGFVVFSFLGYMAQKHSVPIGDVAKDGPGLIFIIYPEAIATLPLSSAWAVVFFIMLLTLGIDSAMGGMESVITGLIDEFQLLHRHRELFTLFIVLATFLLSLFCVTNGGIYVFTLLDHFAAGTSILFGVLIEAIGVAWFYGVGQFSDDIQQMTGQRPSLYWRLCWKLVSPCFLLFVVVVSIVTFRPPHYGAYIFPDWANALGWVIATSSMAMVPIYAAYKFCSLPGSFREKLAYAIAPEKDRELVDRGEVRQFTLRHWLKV
T1 sequence (P23975 whole entry): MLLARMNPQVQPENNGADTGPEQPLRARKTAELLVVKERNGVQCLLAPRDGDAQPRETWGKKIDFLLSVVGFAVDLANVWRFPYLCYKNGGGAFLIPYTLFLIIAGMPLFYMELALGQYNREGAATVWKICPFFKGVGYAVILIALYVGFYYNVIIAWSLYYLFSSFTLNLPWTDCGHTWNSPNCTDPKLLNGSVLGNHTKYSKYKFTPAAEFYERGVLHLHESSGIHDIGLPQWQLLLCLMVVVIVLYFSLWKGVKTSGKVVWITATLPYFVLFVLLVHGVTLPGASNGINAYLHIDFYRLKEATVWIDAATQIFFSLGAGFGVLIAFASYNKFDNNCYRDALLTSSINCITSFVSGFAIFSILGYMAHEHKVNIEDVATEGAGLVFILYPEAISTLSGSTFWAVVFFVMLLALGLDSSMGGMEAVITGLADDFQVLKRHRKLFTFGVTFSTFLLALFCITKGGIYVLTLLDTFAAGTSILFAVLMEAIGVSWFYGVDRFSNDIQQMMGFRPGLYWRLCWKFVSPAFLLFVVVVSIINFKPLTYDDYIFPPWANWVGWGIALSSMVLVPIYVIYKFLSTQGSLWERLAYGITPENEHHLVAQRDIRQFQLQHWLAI

One assay concerns the target T1, Sodium-dependent noradrenaline transporter (Homo sapiens, UniProt P23975). The assay is described as follows: Inhibition of norepinephrine uptake at human NET expressed in MDCK-Net6 cells at 1 uM. It counts as cell-based.
Turning to `CNCC[C@@H](c1ccccc1)n1c(=O)n(C2CC2)c2ccccc21`, the inhibition came out at 25%.
`CCNCC[C@H](c1ccccc1)n1c(=O)n(CC)c2ccccc21` returned an inhibition of 27%.
In the case of `CCn1c(=O)n([C@H](CCN)c2ccccc2)c2ccccc21`, the inhibition was determined as 51%.
On the same count and under the same terms, in the case of `CC(C)n1c(=O)n([C@H](CCN(C)C)c2ccccc2)c2c(F)cccc21` it was 27%.
On the same count and under the same terms, in the case of `CNCC[C@@H](c1ccccc1)n1c(=O)n(C(C)C)c2ccccc21` it was 21%.

Another assay concerns the target T2, Sodium-dependent serotonin transporter (Homo sapiens, UniProt P31645). In kind it is cell-based, JAR.
Target sequence in this assay (P31645 whole entry): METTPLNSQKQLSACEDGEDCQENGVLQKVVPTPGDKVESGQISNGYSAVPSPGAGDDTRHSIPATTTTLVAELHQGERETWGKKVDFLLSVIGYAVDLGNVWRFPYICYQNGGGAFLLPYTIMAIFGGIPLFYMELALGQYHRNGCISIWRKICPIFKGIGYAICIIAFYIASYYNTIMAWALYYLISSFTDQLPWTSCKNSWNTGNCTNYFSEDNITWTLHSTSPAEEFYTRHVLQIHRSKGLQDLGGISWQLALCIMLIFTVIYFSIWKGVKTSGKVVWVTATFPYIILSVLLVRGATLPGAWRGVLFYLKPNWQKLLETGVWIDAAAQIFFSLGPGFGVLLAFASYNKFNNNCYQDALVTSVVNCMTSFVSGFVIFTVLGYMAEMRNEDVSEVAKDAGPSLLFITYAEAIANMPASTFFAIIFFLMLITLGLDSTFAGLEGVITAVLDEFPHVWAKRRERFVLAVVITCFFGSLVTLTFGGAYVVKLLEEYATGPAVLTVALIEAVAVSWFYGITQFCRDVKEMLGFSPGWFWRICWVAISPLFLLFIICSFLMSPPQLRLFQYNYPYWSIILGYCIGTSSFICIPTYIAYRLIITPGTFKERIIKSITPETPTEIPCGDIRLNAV
Regarding `CCn1c(=O)n([C@H](CCNC)c2ccccc2)c2ccccc21`, the pIC50 is 5.37.
Same read-out and setting: next, `CNCC[C@H](c1ccccc1)n1c(=O)n(-c2ccccc2)c2ccccc21`: 5.52.
The same measure, in the same setting: in the case of `CNCC[C@@H](c1ccccc1)n1c(=O)n(-c2ccccc2)c2ccccc21` it was 6.56; in that of `CCCn1c(=O)n([C@@H](CCNC)c2ccccc2)c2ccccc21`, 6.78.
On the same count and under the same terms, in the case of `CNCC[C@H](c1ccccc1)n1c(=O)n(C(C)C)c2cccc(F)c21` it was 5.92.
`CNCC[C@@H](c1ccccc1)n1c(=O)n(C(C)C)c2cccc(F)c21`: the pIC50 is 5.85. The pIC50 values of the last two molecules are within 0.2 log units of each other.
Same read-out and setting: in the case of `CNCC[C@H](c1ccccc1)n1c(=O)n(-c2ccccc2F)c2cccc(F)c21` it was 6.32; in that of `CCCn1c(=O)n([C@H](CCNC)c2ccccc2)c2ccccc21`, 5.51.
Still for that read-out and setting: in the case of `CNCC[C@H](c1ccccc1)n1c(=O)n(C2CC2)c2ccccc21` it was 5.34; in that of `CNCC[C@H](c1ccccc1)n1c(=O)sc2ccccc21`, 5.72.

The next assay concerns the target T2, Sodium-dependent serotonin transporter. As to the kind of experiment: Inhibition of serotonin uptake at human SERT expressed in JAR cells at 1 uM. In kind it is cell-based.
Target sequence in this assay (P31645 whole entry, looked up): as the sequence (P31645 whole entry) above
`CNCC[C@H](c1ccccc1)n1c(=O)n(C)c2ccccc21`: the inhibition stood at 10%.
Regarding `CCn1c(=O)n([C@H](CCNC)c2cccc(F)c2)c2c(F)cccc21`, the inhibition worked out at 28%.
`CNCC[C@H](c1ccccc1)n1c(=O)n(C(C)C)c2ccccc21` came in with an inhibition of 2%.
Same read-out and setting: next, `CNCC[C@H](c1ccccc1)n1c(=O)n(C2CCCCC2)c2ccccc21`: 20%; `CNCC[C@H](c1ccccc1)n1c(=O)n(C2CCCC2)c2ccccc21`: 16%.

Another assay has the same target. As to the kind of experiment: Inhibition of serotonin uptake at human SERT expressed in JAR cells at 10 uM. It counts as cell-based.
Target sequence in this assay (P31645 whole entry, looked up): as the sequence (P31645 whole entry) above
In turn, `CNCC[C@H](c1ccccc1)n1c(=O)n(C(C)C)c2ccccc21` yielded an inhibition of 53%.

Another assay is filed under the species Homo sapiens. The assay is described as follows: Ratio of IC50 for human SERT to IC50 for human NET.
Regarding `CCn1c(=O)n([C@H](CCNC)c2ccccc2)c2ccccc21`, the Ratio IC50 was 98.
The same measure, in the same setting: in the case of `CNCC[C@H](c1ccccc1)n1c(=O)n(-c2ccccc2)c2ccccc21` it was 333; in that of `CNCCC(c1ccccc1)n1ccc2ccccc21` (centres undefined), 7.
Still for that read-out and setting: next, `CNCC[C@H](c1ccccc1)n1c(=O)n(C(C)C)c2ccccc21`: 450; `CNCC[C@H](c1ccccc1)n1c(=O)n(C(C)C)c2cccc(F)c21`: 40; `CNCC[C@H](c1ccccc1)n1c(=O)n(-c2ccccc2F)c2cccc(F)c21`: 80.
The same measure, in the same setting: in the case of `CCCn1c(=O)n([C@H](CCNC)c2ccccc2)c2ccccc21` it was 97.
In the case of `CNCC[C@H](c1ccccc1)n1c(=O)n(C2CC2)c2ccccc21`, the Ratio IC50 amounted to 28.
Same read-out and setting: in the case of `CNCC[C@H](c1ccccc1)n1c(=O)sc2ccccc21` it was 16.

Another assay concerns the target Sodium-dependent dopamine transporter (Homo sapiens) (UniProt Q01959). As to the kind of experiment: Displacement of [3H]WIN-35428 from human recombinant DAT expressed in CHO cells at 10 uM. It counts as cell-based. For orientation: In a radioligand displacement assay an active substance lowers the binding of a labelled ligand.
For `CCn1c(=O)n([C@H](CCNC)c2ccccc2)c2ccccc21`, the inhibition was found to be 4%.
On the same count and under the same terms, in the case of `CNCC[C@H](c1ccccc1)n1c(=O)n(C)c2ccccc21` it was 12%; in that of `CCn1c(=O)n([C@H](CCNC)c2cccc(F)c2)c2c(F)cccc21`, 14%; in that of `CNCC[C@H](c1ccccc1)n1c(=O)n(-c2ccccc2)c2ccccc21`, 33%.
The same measure, in the same setting: next, `CNCC[C@@H](c1ccccc1)n1c(=O)n(-c2ccccc2)c2ccccc21`: 23%; `CCCn1c(=O)n([C@@H](CCNC)c2ccccc2)c2ccccc21`: 5%.
Same read-out and setting: next, `CNCC[C@H](c1ccccc1)n1c(=O)n(C(C)C)c2ccccc21`: 11%.
As to `CNCC[C@H](c1ccccc1)n1c(=O)n(C(C)C)c2cccc(F)c21`, the inhibition stood at 5%.
For the molecule `CNCC[C@@H](c1ccccc1)n1c(=O)n(C(C)C)c2cccc(F)c21`, the inhibition stood at 31%.
Still for that read-out and setting: next, `CNCC[C@H](c1ccccc1)n1c(=O)n(C2CCCCC2)c2ccccc21`: 24%; `CNCC[C@H](c1ccccc1)n1c(=O)n(C2CCCC2)c2ccccc21`: 22%.
The same measure, in the same setting: next, `CCCn1c(=O)n([C@H](CCNC)c2ccccc2)c2ccccc21`: 3%.
Same read-out and setting: in the case of `CNCC[C@H](c1ccccc1)n1c(=O)n(C2CC2)c2ccccc21` it was 7%; in that of `CNCC[C@H](c1ccccc1)n1c(=O)sc2ccccc21`, 36%.

In another assay the target is T1, Sodium-dependent noradrenaline transporter.
Molecule `CCn1c(=O)n([C@H](CCNC)c2ccccc2)c2ccccc21` gave a pIC50 of 7.36.
The same measure, in the same setting: in the case of `CNCC[C@H](c1ccccc1)n1c(=O)n(C)c2ccccc21` it was 6.33; in that of `CCn1c(=O)n([C@H](CCNC)c2cccc(F)c2)c2c(F)cccc21`, 7.72.
The same measure, in the same setting: next, `CNCC[C@H](c1ccccc1)n1c(=O)n(-c2ccccc2)c2ccccc21`: 8.05.
Still for that read-out and setting: in the case of `CNCC[C@@H](c1ccccc1)n1c(=O)n(-c2ccccc2)c2ccccc21` it was 6.67; in that of `CCCn1c(=O)n([C@@H](CCNC)c2ccccc2)c2ccccc21`, 6.20; in that of `CNCC[C@H](c1ccccc1)n1c(=O)n(C(C)C)c2ccccc21`, 7.66.
For `CNCC[C@H](c1ccccc1)n1c(=O)n(C(C)C)c2cccc(F)c21`, the pIC50 was 7.52.
On the same count and under the same terms, in the case of `CNCC[C@@H](c1ccccc1)n1c(=O)n(C(C)C)c2cccc(F)c21` it was 5.98; in that of `CNCC[C@H](c1ccccc1)n1c(=O)n(-c2ccccc2F)c2cccc(F)c21`, 8.22.
Same read-out and setting: next, `CNCC[C@H](c1ccccc1)n1c(=O)n(C2CCCCC2)c2ccccc21`: 6.51; `CNCC[C@H](c1ccccc1)n1c(=O)n(C2CCCC2)c2ccccc21`: 6.70; `CCCn1c(=O)n([C@H](CCNC)c2ccccc2)c2ccccc21`: 7.49.
Same read-out and setting: next, `CNCC[C@H](c1ccccc1)n1c(=O)n(C2CC2)c2ccccc21`: 6.78; `CNCC[C@H](c1ccccc1)n1c(=O)sc2ccccc21`: 6.92.

The values are drawn from ChEMBL document CHEMBL1152153, “Synthesis and activity of novel 1- or 3-(3-amino-1-phenyl propyl)-1,3-dihydro-2H-benzimidazol-2-ones as selective norepinephrine reuptake inhibitors” (Bioorg Med Chem Lett, 2008).
